Measured values from patent US20230279025A1, “KRAS G12D INHIBITORS” (Mirati Therapeutics, Inc., priority 2020, published 2023).
Where a name gives a salt, the structure may show the parent alone.

Key:
KRas G12D [1] = target: T1, KRas G12D (Homo sapiens (Human), UniProt P01116, G12D); assay: KRas G12D Surface Plasmon Resonance (SPR) Binding Assay; settings: Biacore T200, immobilized biotinylated KRAS protein, 1:1 binding model
Method: Briefly, 1L of 1.05X HBS-Mg buffer (262.5 mM Bioultra Hepes, pH 7.5, 157.5 mM NaCl, 105 mM MgCl2, 0.525 mM TCEP, 0.0305% Brij-35) was prepared and filter sterilized using a 0.22 μm bottle top filter. Approximately 50 mL of 1.05X HBS-Mg buffer was removed and saved for future dilutions. A 50 mL aliquot of DMSO (Sigma Aldrich DMSO Lot. #SHBK2079) was added and continued to stir for 10 minutes, creating the final 1.0X HBS-Mg buffer (250 mM Bioultra Hepes pH 7.5, 150 mM NaCl, 100 mM MgCl2, 0.5 mM TCEP, 0.03% Brij-35).
Biacore T200 instrument was primed using 1.0X HBS-Mg buffer before docking a GE Streptavidin (SA) chip and then primed two additional times prior to beginning the immobilization step. All immobilized protein mixtures were created using 3-5 mg/mL Biotinylated Avidin-tagged KRAS protein using the following immobilization settings: SA chip type, 1 flow cells per cycle, 720 second contact time, and 5 ul/min flow rate. Normalization of the detector was also performed during the immobilization step using the GE BiaNormalize solution.
All compounds were diluted to 10 mM in 100% DMSO prior to being diluted 20X in 1.05X buffer. Another 10X dilution was created using 1.0X buffer prior to performing a series of 3X dilutions to create a compound concentration curve using the following assay settings: 20C analysis temperature, General Settings=10 Hz data collection rate and multi-detection; Assay Steps=all set to LMW kinetics; Cycle Types=LMW kinetics (60 s contact time, 120 s dissociation time, 100 ul/min flow rate, extra wash after injection with 50% DMSO, flow path 1,2,3,4); Flow path detection=2-1, 4-3). Data evaluation was performed using the Biacore T200 Evaluation software and data fit to 1:1 binding model. ND=not determined.
Target sequence in this assay (P01116-2 other isoform, or with tags, fused parts or gaps G12D): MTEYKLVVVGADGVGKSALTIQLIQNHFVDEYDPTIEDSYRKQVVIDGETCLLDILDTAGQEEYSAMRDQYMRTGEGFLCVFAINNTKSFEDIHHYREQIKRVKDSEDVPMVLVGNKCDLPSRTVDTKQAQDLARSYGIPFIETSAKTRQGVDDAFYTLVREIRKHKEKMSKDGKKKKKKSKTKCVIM

KRas G12D [2] = target: T1, KRas G12D; assay: KRas G12D Binding Assay (TR-FRET displacement of Cy5 labelled tracer); settings: GDP-loaded KRAS G12D (amino acids 1:169), 60 minute incubation at 22° C.
Method: After a 60 minute incubation at 22° C., the reaction was measured using a PerkinElmer EnVision multimode plate reader via TR-FRET dual wavelength detection, and the percent of control (POC) calculated using a ratiometric emission factor. […] The POC values were fit to a 4-parameter logistic curve and the IC50 value was determined as the concentration where the curve crosses 50 POC.
ND stands for “not determined.”
Target sequence in this assay (P01116 other isoform, or with tags, fused parts or gaps G12D): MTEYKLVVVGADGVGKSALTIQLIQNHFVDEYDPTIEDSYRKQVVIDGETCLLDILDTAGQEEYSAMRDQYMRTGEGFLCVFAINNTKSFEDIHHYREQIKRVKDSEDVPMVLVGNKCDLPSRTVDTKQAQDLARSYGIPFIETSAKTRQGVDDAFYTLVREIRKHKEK

**Q.** With `CN1CCC[C@H]1COc1nc(N2CC3CCC(C2)N3)c2cnc(-c3cccc4c3CCC4O)c(F)c2n1` (stereo partly drawn) [Example 318, 4-(4-((1R,5S)-3,8-diazabicyclo[3.2.1]octan-3-yl)-8-fluoro-2-(((S)-1-methylpyrrolidin-2-yl)methoxy)pyrido[4,3-d]pyrimidin-7-yl)-2,3-dihydro-1H-inden-1-ol] as the compound, how does the Kd (KRas G12D [1]) read?
**A.** Its Kd is 368000 nM.

**Q.** And the IC50 (KRas G12D [2])?
**A.** Its IC50 is greater than 10000 nM.

**Q.** Which Kd (KRas G12D [1]) does the source give for `Cn1cncc1COc1nc(N2C[C@H]3CC[C@@H](C2)N3)c2cnc(-c3cc(O)cc4ccccc34)c(F)c2n1` [Example 95, 4-(4-((1R,5S)-3,8-diazabicyclo[3.2.1]octan-3-yl)-8-fluoro-2-((1-methyl-1H-imidazol-5-yl)methoxy)pyrido[4,3-d]pyrimidin-7-yl)naphthalen-2-ol] here?
**A.** The Kd was 1130 nM.

**Q.** And the IC50 (KRas G12D [2])?
**A.** The IC50 was 561 nM.

**Q.** With `CO[C@@H]1C[C@@H]2CN(c3nc(OC[C@@]45CCCN4C[C@H](F)C5)nc4c(F)c(-c5cccc6cccc(Cl)c56)ncc34)C[C@H]1N2` [Example 397, 7-(8-chloronaphthalen-1-yl)-8-fluoro-2-((2-fluorotetrahydro-1H-pyrrolizin-7a(5H)-yl)methoxy)-4-((1R,5R,6R)-6-methoxy-3,8-diazabicyclo[3.2.1]octan-3-yl)pyrido[4,3-d]pyrimidine] as the compound, how does the Kd (KRas G12D [1]) read?
**A.** Its Kd is 183 nM.

**Q.** What about the IC50 (KRas G12D [2]) of the same compound?
**A.** Its IC50 is 887 nM.

**Q.** Which Kd (KRas G12D [1]) does the source give for `CC(C)N1CCC[C@H]1COc1nc(N2C[C@H]3CC[C@@H](C2)N3)c2cnc(-c3cccc4cccc(Cl)c34)c(F)c2n1` [Example 29, 4-((1R,5S)-3,8-diazabicyclo[3.2.1]octan-3-yl)-7-(8-chloronaphthalen-1-yl)-8-fluoro-2-(((S)-1-isopropylpyrrolidin-2-yl)methoxy)pyrido[4,3-d]pyrimidine] here?
**A.** Its Kd is 170 nM.

**Q.** And the IC50 (KRas G12D [2])?
**A.** The IC50 was 160 nM.

**Q.** How did the Kd (KRas G12D [1]) turn out when `CC(C)n1ccnc1CCOc1nc(N2C[C@H]3CC[C@@H](C2)N3)c2cnc(-c3cc(O)cc4ccccc34)c(F)c2n1` [Example 91, 4-(4-((1R,5S)-3,8-diazabicyclo[3.2.1]octan-3-yl)-8-fluoro-2-(2-(1-isopropyl-1H-imidazol-2-yl)ethoxy)pyrido[4,3-d]pyrimidin-7-yl)naphthalen-2-ol] was run?
**A.** The Kd was 25.9 nM.

**Q.** What about the IC50 (KRas G12D [2]) of the same compound?
**A.** The IC50 was 32.7 nM.

**Q.** For `Cc1cccnc1CCOc1nc(N2C[C@H]3CC[C@@H](C2)N3)c2cnc(-c3cc(O)cc4ccccc34)c(F)c2n1` [Example 6, 4-(4-((1R,5S)-3,8-diazabicyclo[3.2.1]octan-3-yl)-8-fluoro-2-(2-(3-methylpyridin-2-yl)ethoxy)pyrido[4,3-d]pyrimidin-7-yl)naphthalen-2-ol], which Kd (KRas G12D [1]) is on record?
**A.** Its Kd is 442 nM.

**Q.** What about the IC50 (KRas G12D [2]) of the same compound?
**A.** The IC50 was 434 nM.

**Q.** Which Kd (KRas G12D [1]) does the source give for `Cc1cccc2cccc(-c3ncc4c(N5C[C@H]6CC[C@@H](C5)N6)nc(OC[C@@H]5CCCN5C)nc4c3F)c12` [Example 15, 4-((1R,5S)-3,8-diazabicyclo[3.2.1]octan-3-yl)-8-fluoro-7-(8-methylnaphthalen-1-yl)-2-(((S)-1-methylpyrrolidin-2-yl)methoxy)pyrido[4,3-d]pyrimidine] here?
**A.** The Kd was 208 nM.

**Q.** And the IC50 (KRas G12D [2])?
**A.** The IC50 was 260 nM.

**Q.** With `Fc1c(-c2cccc3cccc(Cl)c23)ncc2c(N3C[C@H]4CC[C@@H](C3)N4)nc(OCCc3cn4ccccc4n3)nc12` [Example 92, 4-((1R,5S)-3,8-diazabicyclo[3.2.1]octan-3-yl)-7-(8-chloronaphthalen-1-yl)-8-fluoro-2-(2-(imidazo[1,2-a]pyridin-2-yl)ethoxy)pyrido[4,3-d]pyrimidine] as the compound, how does the Kd (KRas G12D [1]) read?
**A.** Its Kd is 2300 nM.

**Q.** What about the IC50 (KRas G12D [2]) of the same compound?
**A.** Its IC50 is 1350 nM.

**Q.** How did the Kd (KRas G12D [1]) turn out when `Oc1cc(-c2ncc3c(N4C[C@H]5CC[C@@H](C4)N5)nc(OC4CCOCC4)nc3c2F)c2ccccc2c1` [Example 72, 4-(4-((1R,5S)-3,8-diazabicyclo[3.2.1]octan-3-yl)-8-fluoro-2-((tetrahydro-2H-pyran-4-yl)oxy)pyrido[4,3-d]pyrimidin-7-yl)naphthalen-2-ol] was run?
**A.** Its Kd is 507 nM.

**Q.** And the IC50 (KRas G12D [2])?
**A.** Its IC50 is 513 nM.

**Q.** What does the source list for `CN(C)C1(C)CN(c2nc(N3C[C@H]4CC[C@@H](C3)N4)c3cnc(-c4cccc5cccc(Cl)c45)c(F)c3n2)C1` [Example 127, 1-(4-((1R,5S)-3,8-diazabicyclo[3.2.1]octan-3-yl)-7-(8-chloronaphthalen-1-yl)-8-fluoropyrido[4,3-d]pyrimidin-2-yl)-N,N,3-trimethylazetidin-3-amine]?
**A.** Kd (KRas G12D [1]): 864 nM; IC50 (KRas G12D [2]): 251 nM

**Q.** `Cn1cncc1CCOc1nc(N2C[C@H]3CC[C@@H](C2)N3)c2cnc(-c3cc(O)cc4ccccc34)c(F)c2n1` [Example 110, 4-(4-((1R,5S)-3,8-diazabicyclo[3.2.1]octan-3-yl)-8-fluoro-2-(2-(1-methyl-1H-imidazol-5-yl)ethoxy)pyrido[4,3-d]pyrimidin-7-yl)naphthalen-2-ol] was tested. Which Kd (KRas G12D [1]) did it give?
**A.** The Kd was 42.3 nM.

**Q.** And the IC50 (KRas G12D [2])?
**A.** The IC50 was 57.5 nM.

**Q.** With `COc1nc(N2C[C@H]3CC[C@@H](C2)N3)c2cnc(-c3cc(O)cc4ccccc34)c(F)c2n1` [Example 105, 4-(4-((I R,5S)-3,8-diazabicyclo[3.2.1]octan-3-yl)-8-fluoro-2-methoxypyrido[4,3-d]pyrimidin-7-yl)naphthalen-2-ol] as the compound, how does the Kd (KRas G12D [1]) read?
**A.** The Kd was 2260 nM.

**Q.** What about the IC50 (KRas G12D [2]) of the same compound?
**A.** Its IC50 is 867 nM.

**Q.** What does the source list for `O=S1(=O)CCC(Oc2nc(N3C[C@H]4CC[C@@H](C3)N4)c3cnc(-c4cc(O)cc5ccccc45)c(F)c3n2)CC1` [Example 71, 4-((4-((1R,5S)-3,8-diazabicyclo[3.2.1]octan-3-yl)-8-fluoro-7-(3-hydroxynaphthalen-1-yl)pyrido[4,3-d]pyrimidin-2-yl)oxy)tetrahydro-2H-thiopyran 1,1-dioxide]?
**A.** Kd (KRas G12D [1]): 138 nM; IC50 (KRas G12D [2]): 126 nM

**Q.** What does the source list for `Oc1cc(-c2ncc3c(N4C[C@H]5CC[C@@H](C4)N5)nc(OCc4ccccn4)nc3c2F)c2ccccc2c1` [Example 89, 4-(4-((1R,5S)-3,8-diazabicyclo[3.2.1]octan-3-yl)-8-fluoro-2-(pyridin-2-ylmethoxy)pyrido[4,3-d]pyrimidin-7-yl)naphthalen-2-ol]?
**A.** Kd (KRas G12D [1]): 4310 nM; IC50 (KRas G12D [2]): 679 nM

**Q.** `Fc1c(-c2cccc3cccc(Cl)c23)ncc2c(N3C[C@H]4CC[C@@H](C3)N4)nc(OCC34CCCN3CCC4)nc12` [Example 45, 4-((1R,5S)-3,8-diazabicyclo[3.2.1]octan-3-yl)-7-(8-chloronaphthalen-1-yl)-8-fluoro-2-((tetrahydro-1H-pyrrolizin-7a(5H)-yl)methoxy)pyrido[4,3-d]pyrimidine] was tested. Which Kd (KRas G12D [1]) did it give?
**A.** Its Kd is 5.1 nM.

**Q.** What about the IC50 (KRas G12D [2]) of the same compound?
**A.** The IC50 was 5.5 nM.

**Q.** Which results are given for `Oc1cc(-c2ncc3c(N4C[C@H]5CC[C@@H](C4)N5)nc(OCCCC(F)(F)F)nc3c2F)c2ccccc2c1` [Example 38, 4-(4-((1R,5S)-3,8-diazabicyclo[3.2.1]octan-3-yl)-8-fluoro-2-(4,4,4-trifluorobutoxy)pyrido[4,3-d]pyrimidin-7-yl)naphthalen-2-ol]?
**A.** Kd (KRas G12D [1]): 750 nM; IC50 (KRas G12D [2]): 174 nM

**Q.** Which results are given for `Oc1cc(-c2ncc3c(N4C[C@H]5CC[C@@H](C4)N5)nc(OC[C@@H]4CCCN4)nc3c2F)c2ccccc2c1` [Example 50, 4-(4-((1R,5S)-3,8-diazabicyclo[3.2.1]octan-3-yl)-8-fluoro-2-(((S)-pyrrolidin-2-yl)methoxy)pyrido[4,3-d]pyrimidin-7-yl)naphthalen-2-ol]?
**A.** Kd (KRas G12D [1]): 2.1 nM; IC50 (KRas G12D [2]): 2.5 nM

**Q.** How did the Kd (KRas G12D [1]) turn out when `CN(C)C1CN(c2nc(N3C[C@H]4CC[C@@H](C3)N4)c3cnc(-c4cc(O)cc5ccccc45)c(F)c3n2)C1` [Example 120, 4-(4-((1R,5S)-3,8-diazabicyclo[3.2.1]octan-3-yl)-2-(3-(dimethylamino)azetidin-1-yl)-8-fluoropyrido[4,3-d]pyrimidin-7-yl)naphthalen-2-ol bis(2,2,2-trifluoroacetate)] was run?
**A.** Its Kd is 42.1 nM.

**Q.** And the IC50 (KRas G12D [2])?
**A.** The IC50 was 28.8 nM.

**Q.** Which results are given for `CO[C@@H]1CN2CCC[C@]2(COc2nc(N3C[C@H]4CC[C@@H](C3)N4)c3cnc(-c4cccc5cccc(Cl)c45)c(F)c3n2)C1` [Example 219, 4-((1R,5S)-3,8-diazabicyclo[3.2.1]octan-3-yl)-7-(8-chloronaphthalen-1-yl)-8-fluoro-2-((2-methoxytetrahydro-1H-pyrrolizin-7a(5H)-yl)methoxy)pyrido[4,3-d]pyrimidine bis-hydrochloride]?
**A.** Kd (KRas G12D [1]): 8.1 nM; IC50 (KRas G12D [2]): 8.1 nM

**Q.** Which results are given for `Oc1cc(-c2ncc3c(N4C[C@H]5CC[C@@H](C4)N5)nc(OCCCN4CCOCC4)nc3c2F)c2ccccc2c1` [Example 22, 4-(4-((1R,5S)-3,8-diazabicyclo[3.2.1]octan-3-yl)-8-fluoro-2-(3-morpholinopropoxy)pyrido[4,3-d]pyrimidin-7-yl)naphthalen-2-ol]?
**A.** Kd (KRas G12D [1]): 19.6 nM; IC50 (KRas G12D [2]): 50.3 nM

**Q.** Which results are given for `Cc1cccc2cccc(-c3ncc4c(N5C[C@H]6CC[C@@H](C5)N6)nc(OCCc5cccnc5)nc4c3F)c12` [Example 101, 4-((1R,5S)-3,8-diazabicyclo[3.2.1]octan-3-yl)-8-fluoro-7-(8-methylnaphthalen-1-yl)-2-(2-(pyridin-3-yl)ethoxy)pyrido[4,3-d]pyrimidine]?
**A.** Kd (KRas G12D [1]): 12000 nM; IC50 (KRas G12D [2]): 8080 nM
